Experimental data from US12685749B2, “Multi-functional cleaning and/or debridement composition” (CORTICALIS AS, priority 2021, dated 2026).
Where two headings read alike, the source gives them in different places.

Experiments:
[1] = Source text: Methylene blue (MB) is a heterocyclic aromatic chemical compound with molecular formula: C16H18N3SCl (SigmaAldrich, Oslo, Norway). It has many uses in a range of different fields, such as biology and chemistry. […] A degradation of MB therefore can be used as a model for the in vivo degradation of organic material, such as bacteria, or dead, damaged, and/or infected tissue. At room temperature, it appears as a solid, odourless, dark green powder, that yields a blue solution when dissolved in water. When degraded in solution, methylene blue becomes colourless.
When methylene blue is analysed by UV-vis spectrophotometry (Lambda 25, Perkin Elmer, USA), it absorbs light at […]. This machine was used to quantify the degradation of MB.
The aim was to measure if methylene blue could be degraded by H2O2(PERDROGEN® 30% H2O2 (v/v), Sigma Aldrich AS, Oslo, Norway) at 5% only, without ACP in a composite hydrogel formulation comprising poloxamers (Sigma Aldrich AS, Oslo, Norway) at a concentration of 5% w/v. Then, an increasing concentration of amorphous calcium phosphates ACP (by mixing two precursor components. Component A contained MB in a mixture of mono- and dibasic ammonium phosphate at pH 5.5.) was added to the solution until a maximum concentration of 8 g/L.
The measurements were taken every 3 minutes for one hour. The pH of the suspension containing MB was also registered. […]

[2] = pH of the suspension containing MB; assay type: physicochemical
[3] = cited from earlier work
[4] = system: Staphylococcus epidermidis biofilm; assay: Removal of biofilm from titanium disks, safranin staining; assay type: cell-based; conditions: two minutes exposure
Source text: Chemically pure (cp) titanium disks with a diameter of 6.2 mm and a height of 2 mm were used. […] After production, the disks were washed with NaOH at 40% v/v and HNO3 at 50% v/vin an ultrasonic bath to remove contaminants, then were washed with deionised water to reach a neutral pH and stored at room temperature in 70% v/v ethanol. Thereafter, the coins were placed in Eppendorf tube and steam autoclaved for sterilization.
Four chemical decontamination agents were selected for the in vitro testing: sterile saline H2O (VWR, Oslo, Norway), Chlorhexidine, 3% v/v H2O2(VWR, Oslo, Norway), a mixture of 3% v/v H2O2 and 2 g/L TiO2 (2 g nano-particles: P25 Aeroxide, Degussa Evonik, Evonik Industries AG, Essen, Germany).
15 sterile titanium disks per groups were inoculated. […] The amount of biofilm present on the surface of the titanium samples was assessed by using the safranin staining method: 10 min exposure to a 0.1% solution of safranin, then rinsed with distilled water, air dried, and exposed to a solution of 30% acetic acid to release the colored biomass from the titanium surfaces. The intensity of the staining was analyzed using a Synergy HT Multi-Detection Microplate Reader (Biotek, VT, USA) with a wavelength of 530 nm.

- MB degradation ([1]; adding 5% v/v H2O2 to the ACP suspension): increased the MB degradation
- pH of the suspension ([2]; ACP suspension with MB, with H2O2 at 15% v/v): 3.3
- pH of the suspension ([2]; H2O2 suspension with MB, without ACP): 3.7
Compound: OO [H2O2, Hydrogen peroxide]
- MB degradation ([1]; increasing concentration of H2O2 in the ACP suspension): increased the MB degradation in a linear way
- effect on wound healing ([3]; 0.03% v/v solution, only if not applied repeatedly): may induce healing
- effect on wound healing ([3]; 0.5% v/v solution): impede healing
- biofilm removal with higher concentration [4]: increased the biofilm removal
